# Experimental data: patent publication US7368432B2 (Xenome, Ltd., priority 1999, dated 2008)
# Key:
# [1] = in vivo
# mice [2] = details: mouse, in vivo
# CF-1 mice = details: in vivo
# mice [3] = details: mouse, in vivo; remark: listed apart in the source
sequence,measurement,setting,value
NGVCCGYKLCHOC [Mar1],activity in formalin test (licking time),[1],active
same,symptoms after high-dose i.c.v. administration,mice [2],akinesia and seizures
same,symptoms after i.c.v. injection of HPLC fractions,mice [2],hypokinetic “sluggish” symptoms
same,analgesic activity in mouse hot plate assay,CF-1 mice,potent analgesics
same,increase in the latency to first hind paw lick,CF-1 mice; mouse,dose-dependent
same,latency to first hind paw lick,CF-1 mice; mouse,39.5 ± 13.5 s
same,latency to lick the hind paw,CF-1 mice; mouse,significantly increased
same,activity in tail-flick model,mice [3],active
same,effective dose range,mice [3],low nanomole range
same,response latency in the tail flick model,mice [3],reduced the response latency
